Measurements from ChEMBL document CHEMBL1201862, “PubChem BioAssay data set” (2004).
Active and inactive are the calls of the source.

Assays:
[1] = HEK-293T viability loss after treatment – luminescence, T-cell screen hits, cytotoxicity control for TCR NF-kB inhibitor project, dose response (AID 489026); assay type: functional, cell-based;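 further: cells exposed to compound about 14 hours before the viability readout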
[2] = viability of uninfected HEp-2 cells – cell-based, HTS, cytotoxicity control for RSV inhibitor project, dose response (AID 2410); assay type: functional; details: human respiratory syncytial virus
Vero [3] = assay: cells; assay type: functional, cell-based; details: Chlorocebus sabaeus
Vero [4] = assay: cells; assay type: functional; details: Chlorocebus sabaeus
cells [5] = assay: cells
[6] = biological target: G-protein coupled receptor 55 (Homo sapiens, UniProt Q9Y2T6); assay: inhibition of LPI-stimulated GPR55 beta-arrestin translocation – imaging, U2OS, beta-arrestin-GFP, LPI agonist, primary screen (AID 2013); assay type: functional;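 further: antagonist potency measured as reduced agonist-driven arrestin aggregation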
[7] = biological target: T1, RNA-binding protein pos-1 (Caenorhabditis elegans, UniProt G5EF15); assay: disruptors of C. elegans POS-1 RNA interaction – biochemical, fluorescence polarization, dose response (AID 1964);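 further: purified POS-1 fused to maltose binding protein made in E. coli; potency of compounds blocking POS-1 binding to fluorescent RNA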
T1 sequence (G5EF15 whole entry): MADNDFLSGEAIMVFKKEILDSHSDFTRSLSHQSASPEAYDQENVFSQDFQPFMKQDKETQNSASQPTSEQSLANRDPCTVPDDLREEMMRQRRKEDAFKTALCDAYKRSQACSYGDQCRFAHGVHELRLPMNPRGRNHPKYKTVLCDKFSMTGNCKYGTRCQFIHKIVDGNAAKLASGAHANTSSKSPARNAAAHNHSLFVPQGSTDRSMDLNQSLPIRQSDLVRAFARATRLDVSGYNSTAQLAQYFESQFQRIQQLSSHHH

[8] = biological target: T2, Zinc finger protein mex-5 (Caenorhabditis elegans, UniProt Q9XUB2); assay: potency of MEX-5 RNA-binding blockers – biochemical, C. elegans, fluorescence polarization, dose response (AID 1960)
T2 sequence (Q9XUB2 whole entry): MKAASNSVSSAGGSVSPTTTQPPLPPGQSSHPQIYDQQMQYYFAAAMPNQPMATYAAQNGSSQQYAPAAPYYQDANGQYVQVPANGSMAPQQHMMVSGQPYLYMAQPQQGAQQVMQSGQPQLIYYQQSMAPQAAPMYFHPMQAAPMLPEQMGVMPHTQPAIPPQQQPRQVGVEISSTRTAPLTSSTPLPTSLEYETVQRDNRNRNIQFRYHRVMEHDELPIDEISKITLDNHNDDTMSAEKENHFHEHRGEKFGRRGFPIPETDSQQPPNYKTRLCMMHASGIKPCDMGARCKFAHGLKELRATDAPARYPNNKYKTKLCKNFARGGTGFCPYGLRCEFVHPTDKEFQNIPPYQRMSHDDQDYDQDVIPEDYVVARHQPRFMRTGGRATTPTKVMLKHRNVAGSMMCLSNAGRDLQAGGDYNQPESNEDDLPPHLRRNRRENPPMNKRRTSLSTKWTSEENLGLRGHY

[9] = NIH-3T3 fibroblast cytotoxicity, dose response, cytotoxicity control, cell-based, fluorescence, Alamar Blue, secondary assay (AID 2327); assay type: functional;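 further: NIH-3T3 mouse fibroblasts cultured with fluconazole at 8 µg/mL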
[10] = tested on: Streptococcus sp. 'group A'; assay: Streptococcus pyogenes SK(-)GAS viability under kanamycin – luminescence, BacTiterGlo, confirmation, counter-screen for streptokinase expression inhibitor project, dose response (AID 1900); assay type: functional, organism-based
cells [11] = assay type: functional, cell-based
[12] = fluconazole-exposed Candida albicans growth modulators – fluorescence, retest, confirmation (AID 2467); assay type: functional, cell-based
[13] = Luminescence-based counterscreen assay for KLF5 inhibitors: dose response cell-based high throughput screening assay to identify cytotoxic compounds using the IEC-6 intestinal epithelial cell line. [Related pubchem assays: 1700 (Primary screen.), 1834 (Confirmation screen.), 1858 (Summary AID.), 1905 (Counterscreen.)]; assay type: functional
cells [14] = assay type: functional, cell-based; remark: listed apart in the source
Streptococcus = assay: GAS UMAA2166 growth inhibition – luminescence, BacTiterGlo, counter-screen for streptokinase expression inhibitor project, dose response (AID 1915); assay type: functional, organism-based;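 further: potency for reduction of bacterial viability or growth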
INS1 = assay: INS-1E survival protection against cytokine death – cell-based, luminescence, retest, dose response (AID 449756); assay type: functional; details: Rattus norvegicus;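 further: cell death triggered by IL-1 beta plus TNF-alpha plus IFN-gamma mixture; protective hits raise ATP signal compared with cytokine alone wells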
Protein Wnt-3a = Protein Wnt-3a (Mus musculus, UniProt P27467); assay: antagonism of Wnt3a pathway luciferase reporter – Wnt-LIGHT cells, luminescence, selectivity assay for Gli-SUFU antagonist project, dose response (AID 651570); assay type: functional; details: read-out: IC50_Mean;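 further: Wnt-LIGHT reporter cells stimulated with conditioned medium from Wnt3a-producing cells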
Paired box protein Pax-8 = Paired box protein Pax-8 (Homo sapiens, UniProt Q06710); assay: PAX8 transcriptional activity inhibition in RMG-I – RMG-I cells, luciferase, cherry-pick, dose response (AID 687027); assay type: functional, cell-based;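 further: luciferase reporter driven by Pax8 target thyroperoxidase promoter measured by SteadyGlo luminescence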
[15] = OVCAR-3 cell viability loss – plate reader, dry powder samples, PAX8 inhibitor project, dose response (AID 743044); assay type: functional, cell-based
[16] = IGROV1 cell killing – plate reader, dry powder samples, PAX8 inhibitor project, dose response (AID 743043); assay type: functional, cell-based; details: IGROV-1
[17] = OVCAR8 cell viability loss – plate reader, dry powder samples, PAX8 project, dose response (AID 743197); assay type: functional, cell-based; details: OVCAR-8
[18] = P. falciparum Dd2 growth inhibitors, dose response, SYBR Green, cherry-picked samples (AID 1159567); assay type: functional, cell-based
[19] = toxicity to human hepatoma HepG2 cells – cell-based, cherry-picked samples, cytotoxicity control, dose response (AID 1159577); assay type: functional
Estrogen receptor beta [20] = biological target: T3, Estrogen receptor beta (Homo sapiens, UniProt Q92731);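 further: recombinant ER-beta bound to coactivator SRC1 peptide in presence of estradiol agonist; inhibitors block coactivator peptide binding and lower the FRET signal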
Estrogen receptor beta [21] = biological target: T3, Estrogen receptor beta; assay: blockers of SRC-3 recruitment to ERβ – biochemical, ELISA, streptavidin-HRP readout, orthogonal assay, confirmation (AID 1060)

Chain of G-protein coupled receptor 55 (Q9Y2T6 whole entry, the tested form may be a part): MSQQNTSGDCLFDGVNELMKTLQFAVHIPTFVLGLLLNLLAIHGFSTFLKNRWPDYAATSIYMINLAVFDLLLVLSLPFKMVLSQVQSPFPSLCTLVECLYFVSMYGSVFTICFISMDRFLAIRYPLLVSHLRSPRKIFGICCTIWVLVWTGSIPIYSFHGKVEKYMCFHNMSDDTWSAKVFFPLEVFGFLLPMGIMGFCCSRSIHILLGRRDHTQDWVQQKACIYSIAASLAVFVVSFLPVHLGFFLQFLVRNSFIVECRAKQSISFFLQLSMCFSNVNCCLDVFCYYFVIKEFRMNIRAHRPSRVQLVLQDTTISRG
T3 sequence (Q92731 whole entry): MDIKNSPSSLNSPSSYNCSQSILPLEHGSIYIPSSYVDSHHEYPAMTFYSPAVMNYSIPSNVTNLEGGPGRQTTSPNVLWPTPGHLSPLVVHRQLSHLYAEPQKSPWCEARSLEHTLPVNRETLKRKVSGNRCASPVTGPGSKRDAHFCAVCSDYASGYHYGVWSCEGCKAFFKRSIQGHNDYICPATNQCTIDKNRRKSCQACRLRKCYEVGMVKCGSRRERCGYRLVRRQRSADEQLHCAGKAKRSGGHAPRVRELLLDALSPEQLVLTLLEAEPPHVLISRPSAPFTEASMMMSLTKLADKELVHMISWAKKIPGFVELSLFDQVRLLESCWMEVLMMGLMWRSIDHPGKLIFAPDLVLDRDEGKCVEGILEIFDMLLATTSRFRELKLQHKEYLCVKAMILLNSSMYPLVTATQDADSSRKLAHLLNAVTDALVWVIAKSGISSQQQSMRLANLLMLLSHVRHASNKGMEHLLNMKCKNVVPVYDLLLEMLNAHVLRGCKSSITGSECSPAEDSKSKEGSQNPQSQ
Chain of Protein Wnt-3a (P27467 whole entry): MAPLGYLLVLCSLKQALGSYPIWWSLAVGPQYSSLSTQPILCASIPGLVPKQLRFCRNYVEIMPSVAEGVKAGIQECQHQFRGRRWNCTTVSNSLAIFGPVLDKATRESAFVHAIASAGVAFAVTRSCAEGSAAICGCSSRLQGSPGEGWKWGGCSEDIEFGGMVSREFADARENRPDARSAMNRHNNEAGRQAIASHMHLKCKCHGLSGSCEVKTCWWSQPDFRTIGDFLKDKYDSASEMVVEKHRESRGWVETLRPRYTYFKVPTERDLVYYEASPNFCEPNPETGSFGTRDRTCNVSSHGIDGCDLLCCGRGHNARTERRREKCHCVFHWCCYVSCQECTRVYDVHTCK
Chain of Paired box protein Pax-8 (Q06710 whole entry): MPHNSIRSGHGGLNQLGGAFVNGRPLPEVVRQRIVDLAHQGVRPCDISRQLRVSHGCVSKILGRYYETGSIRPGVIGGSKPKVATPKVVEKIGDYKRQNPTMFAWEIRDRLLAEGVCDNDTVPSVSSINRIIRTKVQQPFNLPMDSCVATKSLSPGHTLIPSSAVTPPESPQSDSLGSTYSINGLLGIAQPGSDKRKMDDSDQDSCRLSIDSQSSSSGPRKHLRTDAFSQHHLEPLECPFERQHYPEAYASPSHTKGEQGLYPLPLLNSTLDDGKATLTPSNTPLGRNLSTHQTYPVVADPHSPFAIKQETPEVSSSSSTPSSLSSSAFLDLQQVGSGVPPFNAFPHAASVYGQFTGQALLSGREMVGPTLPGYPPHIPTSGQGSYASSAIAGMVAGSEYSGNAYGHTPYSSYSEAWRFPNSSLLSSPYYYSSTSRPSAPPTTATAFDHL

With `Brc1ccc2c(c1)C(C1=NCCN1)c1ccccc1CS2` (stereo unspecified) the IC50 [1] was > 80 µM (inactive).
For `Cc1nn(Cc2ccccc2Cl)c(C)c1C(=O)Nc1nnc(C2CC2)s1`, the CC50 [2] was 7.49 µM (active), the IC50 (Vero [3]) was 5.21 µM (active) and the CC50 (Vero [4]) was > 25 µM (active). The IC50 (cells [5]) was 3.75 µM (active).
With `COc1ccc(OC)c(N2C(=O)NC(=O)/C(=C/c3c(C)[nH]c4ccccc34)C2=O)c1` the IC50 [6] was < 0.5 µM (active).
In the case of `COc1ccc(N2C(=O)NC(=O)/C(=C\c3cn(CC(=O)N4CCOCC4)c4ccccc34)C2=O)c(OC)c1`, the EC50 [7] is reported as > 300 µM (not active), the EC50 [8] is reported as > 300 µM (not active) and the IC50 [6] is reported as 1.59 µM (active).
For `COc1ccc(OC)c2[nH]c(C(=O)N/N=C/c3ccccc3O)cc12`, the EC50 [9] was > 160 µM (inactive), the EC50 [10] was 1.96 µM (active) and the EC50 (cells [11]) was 12.2 µM (active). The EC50 [12] was 1.86 µM (active), the IC50 [13] was 12.5 µM (not active) and the EC50 (cells [14]) was > 350 µM (not active). For the same compound, the EC50 (Streptococcus) was 2.37 µM (active) and the AC50 (INS1) was 2.12 µM (active).
In the case of `CC1CCN(Cc2c(C(=O)N/N=C/c3ccccc3O)nnn2-c2nonc2N)CC1`, the EC50 (cells [11]) is reported as 29.5 µM (active), the IC50 [13] is reported as 4.81 µM (active) and the EC50 (cells [14]) is reported as > 350 µM (not active). For the same compound, the AC50 (INS1) was 0.9 µM (active) and the IC50 (Protein Wnt-3a) was 20.8 µM (inactive).
In the case of `CCCC#Cc1ccc([C@H]2[C@@H](CO)N3CCCCN(S(=O)(=O)Cc4ccccc4)C[C@H]23)cc1`, the AC50 (Paired box protein Pax-8) is reported as 20.5 µM (active), the AC50 [15] is reported as 23.5 µM (active) and the AC50 [16] is reported as 30.9 µM (active). For the same compound, the AC50 [17] was > 70 µM (inactive), the AC50 [18] was 2.67 µM (active) and the AC50 [19] was 11.9 µM (active).
With `CC(=N)/C(C#N)=C(/O)CSc1nnnn1-c1ccc(C)cc1` the IC50 (Estrogen receptor beta [20]) was 13.7 µM (active) and the IC50 (Estrogen receptor beta [21]) was 0.345 µM (not active).
For `O=C(Nc1ccccc1)N1CCCCN2[C@@H](CO)[C@@H](c3ccc(-c4ccccc4)cc3)[C@@H]2C1`, the AC50 [18] was 4.43 µM (active) and the AC50 [19] was 9.01 µM (active).
For `O=S(=O)(c1ccccc1)N1C[C@@H]2N[C@H](C1)[C@@H]2c1ccc(-c2ccc(F)cc2)cc1`, the AC50 [18] was 5.34 µM (active) and the AC50 [19] was 10.9 µM (active).
In the case of `COc1cccc(CN(C)C[C@H]2OCc3ccccc3-c3c(n(C)c4ccccc34)C(=O)N([C@@H](C)CO)C[C@H]2C)c1`, the AC50 [18] is reported as 1.62 µM (active) and the AC50 [19] is reported as 18 µM (active).
